Measurements published in patent publication US6143766A, “Benzopyranone and quinolone inhibitors of ras farnesyl transferase” (Warner-Lambert Company, priority 2000, dated 2000).
Like-named read-outs stand apart in the source and are kept apart here.

Assays:
[1] = target: T1, rat FPT (Rattus norvegicus, UniProt Q02293+Q04631); experiment: PFT Inhibitory Activity (protein farnesyl transferase); format: biochemical; settings: 30° C., 30 minutes
T1 construct: made in house; host or cells: Sf9 insect cells
Method: The protein farnesyl transferase (PFT) or farnesyl protein transferase (FPT) inhibitory activity of compounds of the present invention were assayed in HEPES buffer (pH 7.4) containing 5 mM potassium phosphate and 20 μM ZnCl2. The solution also contained 5 mM DTT (dithiothreitol), 5 mM MgCl2, and 0.1% PEG 8000. Assays were performed in 96-well plates (Wallec, Finland) and employed solutions composed of varying concentrations of a compound of the present invention in 10% DMSO (dimethylsulfoxide). Upon addition of both substrates, radiolabeled farnesyl pyrophosphate ([1^3 H], specific activity 15-30 Ci/mmol, final concentration 134 nM) and (biotinyl)-Ahe-Thr-Lys-Cys-Val-Ile-Met ([3aS[3a α, 4 β, 6a α]-hexahydro-2-oxo-1H-thieno[3,4-d]imidazole-5-pentanoicacid]-[7-aminoheptanoic acid]-Thr-Lys-Cys-Val-Ile-Met). Ahe is 7-aminoheptanoic acid, Thr is threonine, Lys is lysine, Cys is cysteine, Val is valine, Ile is isoleucine, and Met is methionine (final concentration 0.2 μM); the enzyme reaction was started by addition of SF9 affinity purified rat FPT. After incubation at 30° C. for 30 minutes, the reaction was terminated by diluting the reaction 2.5-fold with a stop buffer containing 1.5 M magnesium acetate, 0.2 M H3 PO4, 0.5% BSA (bovine serum albumin), and strepavidin beads (Amersham, Arlington Heights, Ill.) at a concentration of 1.3 mg/mL. After allowing the plate to settle for 30 minutes at room temperature, radioactivity was quantitated on a microBeta counter (Model 1450, Wallec, Finland). The assay was also carried out without 5 mM potassium phosphate.

[2] = test system: ras protein in ras-transformed cells; experiment: Mobility Shift Assay (ras farnesylation in ras-transformed cells); format: cell-based; settings: 18-hour incubation, read-out: Mobility Shift MED
Method: Twenty-four hours after planting 2×10^6 ras-transformed cells per treatment condition, the farnesylation inhibitor is added at varying concentrations. Following an 18-hour incubation period, cells are lysed in phosphate-buffered saline containing 1% Triton X-100, 0.5% sodium deoxycholate, and 0.1% SDS (sodium dodecyl sulfate), pH 7.4 in the presence of several protease inhibitors (PMSF (phenylmethylsulfonylfluoride), antipain, leupeptin, pepstatin A, and aprotinin all at 1 μg/mL). Ras protein is immunoprecipitated from the supernatants by the addition of 3 μg v-H-ras Ab-2 (Y13-259 antibody from Oncogene Science, Cambridge, Mass.). After overnight immunoprecipitation, 30 μL of a 50% protein G-Sepharose slurry (Pharmacia, Uppsala, Sweden) is added followed by 45-minute incubation. Pellets are resuspended in 2X tris-glycine loading buffer (Novex, San Diego, Calif.) containing 5% mercaptoethanol and then denatured by 5 minutes boiling prior to electrophoresis on 14% Tris-glycine SDS gels. Using Western transfer techniques, proteins are transferred to nitrocellulose membranes followed by blocking in blocking buffer. Upon overnight incubation with primary antibody (pan-ras Ab-2 from Oncogene Science, Cambridge, Mass.), an antimouse HRP (horseradish peroxidase) conjugate secondary antibody (Amersham) is employed for detection of the ras protein. Blots are developed using ECL (enhanced chemiluminescence) techniques (Amersham, Arlington Heights, Ill.).

[3] = test system: human lung carcinoma with K-ras mutation and p53 deletion; settings: nude mice; cited from earlier work
[4] = test system: human colon carcinoma; settings: 100 mg/kg, xenografts in nude mice; cited from earlier work
[5] = test system: HT1080 human fibrosarcoma; settings: 100 mg/kg, xenografts in nude mice; cited from earlier work
[6] = test system: EJ-1 human bladder carcinoma; settings: 100 mg/kg, xenografts in nude mice; cited from earlier work
[7] = test system: mammary and salivary carcinomas in ras transgenic mice; settings: daily administration; cited from earlier work
[8] = HEPES buffer pH 7.4 with 5 mM potassium phosphate, read-out: IC50 (μM) Hepes + 5 mM Phosphate
[9] = HEPES buffer pH 7.4 without 5 mM potassium phosphate, read-out: IC50 (μM) Hepes

Compound | IC50 [1, 8] [µM] | IC50 [1, 9] [µM] | minimal effective concentration [2] [µM] | other results
O=c1cc(-c2cccc(Cl)c2)c2ccc(OC(Cn3ccnc3)c3ccccc3)cc2o1 (stereo not drawn) [Example 6, 4-(3-Chloro-phenyl)-7-(2-imidazol-1-yl-1-phenyl-ethoxy)-chromen-2-one] | 0.32 | 0.29 | 1 | 
Cn1c(=O)cc(-c2cccc(Cl)c2)c2cc(OCc3c[nH]cn3)ccc21 [Example 3, 4-(3-Chloro-phenyl)-6-(1H-imidazol-4-ylmethoxy)-1-methyl-1H-quinolin-2-one] | 3.6 | 9.8 |  | 
Cn1cncc1C(Oc1ccc2c(c1)c(-c1cccc(Cl)c1)cc(=O)n2C)c1ccccc1 (stereo not drawn) [Example 4, 4-(3-Chloro-phenyl)-1-methyl-6-[(3-methyl-3H-imidazol-4-yl)-phenyl-methoxy]-1H-quinolin-2-one] | 1.8 | 1.7 |  | 
O=c1cc(-c2ccc(Cl)cc2)c2ccc(OC(Cn3ccnc3)c3ccccc3)cc2o1 (stereo not drawn) [Example 9, 4-(4-Chloro-phenyl)-7-(2-imidazol-1-yl-1-phenyl-ethoxy)-chromen-2-one] | 1.6 | 1.8 |  | 
Cc1ccc(-c2cc(=O)oc3cc(OC(Cn4ccnc4)c4ccccc4)ccc23)cc1 (stereo not drawn) [Example 11, 7-(2-imidazol-1-yl-1-phenyl-ethoxy)-4-p-totyl-chromen-2-one] | 0.52 | 0.67 | 1 | 
O=c1cc(-c2ccccc2Cl)c2ccc(OC(Cn3ccnc3)c3ccccc3)cc2o1 (stereo not drawn) [Example 10, 4-(2-Chloro-phenyl)-7-(2-imidazol-1-yl-1-phenyl-ethoxy)-chromen-2-one] | 0.29 | 0.14 | > 0.2 | 
CSCC[C@H](NC(=O)c1ccc(NC[C@@H](N)CS)cc1-c1ccccc1)C(=O)O [FT1276] |  |  |  | block of tumor growth [3]: selectively block tumor growth
COC(=O)[C@H](CCSC)NC(=O)[C@H](/C=C\[C@@H](/C=C/[C@@H](N)CS)C(C)C)Cc1ccccc1 [Example B1086] |  |  |  | tumor growth inhibition [4]: inhibit tumor growth; tumor growth inhibition [5]: inhibit tumor growth; tumor growth inhibition [6]: inhibit tumor growth
C=CCc1c(OC(Cn2ccnc2)c2ccccc2)ccc2c(-c3ccccc3)cc(=O)oc12 (stereo not drawn) [Example 12, 8-allyl-7-(2-imidazol-1-yl-1-phenyl-ethoxy)-4-phenyl-chromen-2-one] | 0.64 | 0.63 | > 1 | 
Cc1ccccc1-c1cc(=O)oc2cc(OC(Cn3ccnc3)c3ccccc3)ccc12 (stereo not drawn) [Example 8, 7-(2-Imidazol-1-yl-1-phenyl-ethoxy)-4-o-tolyl-chromen-2-one] | 0.92 | 0.98 |  | 
Cn1c(=O)cc(-c2cccc(Cl)c2)c2ccc(OC(Cn3ccnc3)c3ccccc3)cc21 (stereo not drawn) [Example 2, 4-(3-Chloro-phenyl)-7-(2-imidazol-1-yl-1-phenyl-ethoxy)-1-methyl-1H-quinolin-2-one] | 0.99 | 0.7 | > 1 | 
O=c1cc(-c2ccccc2)c2ccc(OC(Cn3ccnc3)c3ccccc3)cc2o1 (stereo not drawn) [Example 5, 7-(2-Imidazol-1-yl-1-phenyl-ethoxy)-4-phenyl-chromen-2-one] | 0.8 | 0.74 | 0.2 | 
Cn1c(=O)cc(-c2cccc(Cl)c2)c2cc(OC(Cn3ccnc3)c3ccccc3)ccc21 (stereo not drawn) [Example 1, 4-(3-Chloro-phenyl)-6-(2-imidazol-1-yl-1-phenyl-ethoxy)-1-methyl-1H-quinolin-2-one] | 0.068 | 0.064 | 1 | 
CC[C@H](C)[C@@H](CO[C@@H](Cc1ccccc1)C(=O)N[C@@H](CCS(C)(=O)=O)C(=O)OC(C)C)NC[C@@H](N)CS [L-744,832] |  |  |  | tumor regression [7]: caused tumor regression
Cc1cccc(-c2cc(=O)oc3cc(OC(Cn4ccnc4)c4ccccc4)ccc23)c1 (stereo not drawn) [Example 7, 7-(2-Imidazol-1-yl-1-phenyl-ethoxy)-4-m-tolyl-chromen-2-one] | 1.4 | 0.5 |  | 
